The IC50 is the concentration that gives 50% inhibition. In general, Km refers to the substrate concentration at which the rate is half of its maximum. One may read the Vmax as the rate approached at saturating substrate.

The source of these data is publication PMC9521027 (ACS Omega, 2022).

Changes are numbered by the printed parent chain. Names may count otherwise. “And” between values parts separate entries of the source, which are not always exact repeats. Equal values may be shown once.

Data set [1] deals with T1, URAT1 K393H mutant (Homo sapiens, UniProt Q96S37, K393H).
T1 sequence (Q96S37 1-553 K393H): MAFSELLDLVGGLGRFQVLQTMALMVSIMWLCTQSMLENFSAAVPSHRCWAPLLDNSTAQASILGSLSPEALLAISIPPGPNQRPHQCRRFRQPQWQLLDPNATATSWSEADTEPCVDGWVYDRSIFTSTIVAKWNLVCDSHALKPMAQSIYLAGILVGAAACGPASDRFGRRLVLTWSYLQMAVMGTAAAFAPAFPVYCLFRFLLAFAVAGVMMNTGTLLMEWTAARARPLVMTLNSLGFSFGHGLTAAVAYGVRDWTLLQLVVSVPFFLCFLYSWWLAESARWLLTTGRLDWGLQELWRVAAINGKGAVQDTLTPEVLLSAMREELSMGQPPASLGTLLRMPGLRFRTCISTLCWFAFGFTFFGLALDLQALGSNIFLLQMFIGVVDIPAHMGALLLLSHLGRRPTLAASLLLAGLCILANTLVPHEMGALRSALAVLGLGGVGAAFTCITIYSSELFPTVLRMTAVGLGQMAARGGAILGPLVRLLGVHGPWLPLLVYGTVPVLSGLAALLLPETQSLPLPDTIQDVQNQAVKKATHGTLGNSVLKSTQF
Briefly: 14C-uric acid binding assay with membrane protein. The note with it: 1 μM BM, 1 μM verinurad, 10 μM lesinurad, 20 μM probenecid, 30 min, 25 μM 14C-uric acid.

For data set [2], the target named is T2, URAT1 K393R mutant (Homo sapiens, UniProt Q96S37, K393R).
T2 sequence (Q96S37 1-553 K393R): T1 sequence (Q96S37 1-553 K393H) with H393R
The experiment in a line: 14C-uric acid binding assay with membrane protein. The note with it: 1 μM BM, 1 μM verinurad, 10 μM lesinurad, 20 μM probenecid, 30 min, 25 μM 14C-uric acid.

A further data set deals with T3, URAT1 K393A mutant (Homo sapiens, UniProt Q96S37, K393A).
T3 sequence (Q96S37 1-553 K393A): T1 sequence (Q96S37 1-553 K393H) with H393A
The experiment in a line: 14C-uric acid uptake assay in transfected HEK293 cells. The format is cell-based.

The target in the next data set is T4, URAT1 K393E mutant (Homo sapiens, UniProt Q96S37, K393E).
T4 sequence (Q96S37 1-553 K393E): T1 sequence (Q96S37 1-553 K393H) with H393E
The data set is described as above. The format is cell-based.

A further data set deals with T5, wild-type hURAT1 (Homo sapiens, UniProt Q96S37).
T5 sequence (Q96S37 1-553): T1 sequence (Q96S37 1-553 K393H) with H393K
Briefly: cell-based.

Data set [3] has as its target T2, URAT1 K393R mutant. Briefly: 14C-uric acid uptake assay in transfected HEK293 cells. The format is cell-based.
The target of data set [4] is T1, URAT1 K393H mutant. The description is as above. It counts as cell-based.
In the next data set the target is T6, URAT1 K393D mutant (Homo sapiens, UniProt Q96S37, K393D).
T6 sequence (Q96S37 1-553 K393D): T1 sequence (Q96S37 1-553 K393H) with H393D
The description is as above. The format is cell-based.

Substrate in data set [5]: O=c1[nH]c(=O)c2[nH]c(=O)[nH]c2[nH]1
Briefly: Saturation kinetic experiment of 14C-uric acid uptake. The format is cell-based, human. The settings on record: 10–200 μM 14C-uric acid, 20 min, HEK293, n = 3.

Turning to `O=C(O)CSc1nnc(Br)n1-c1ccc(C2CC2)c2ccccc12` [lesinurad], the “Effect of inhibitor on 14C-uric acid binding compared with WT group” value (shortened to “Effect of inhibitor … compared with WT group”) at URAT1 K393H mutant [1] and at URAT1 K393R mutant [2] was “similar” in each case.
As for `CCc1oc2ccccc2c1C(=O)c1cc(Br)c(O)c(Br)c1` [BM, benzbromarone], the “Effect of inhibitor … compared with WT group” value at URAT1 K393H mutant [1] and at URAT1 K393R mutant [2] was “poorly interfered” throughout.
On to `CC(C)(Sc1ccncc1-c1ccc(C#N)c2ccccc12)C(=O)O` [verinurad], for which the 50% inhibitory concentration (IC50) was determined as 420 ± 260 nM against URAT1 K393A mutant; 360 ± 220 nM against URAT1 K393E mutant; 290 ± 120 nM against wild-type hURAT1; 310 ± 290 nM against URAT1 K393R mutant [3]; 490 ± 240 nM against URAT1 K393H mutant [4]; 440 ± 210 nM against URAT1 K393D mutant. The “Effect of inhibitor … compared with WT group” value at URAT1 K393H mutant [1] and on URAT1 K393R mutant [2] was “similar” each time.
With `CCCN(CCC)S(=O)(=O)c1ccc(C(=O)O)cc1` [probenecid], the “Effect of inhibitor … compared with WT group” value on URAT1 K393H mutant [1] and at URAT1 K393R mutant [2] was “similar” in each case.

B1: hURAT1 K393R mutant (Homo sapiens; K393R) (protein)
chain: T1 sequence (Q96S37 1-553 K393H) with H393R
For B1, in data set [5] (other: K393R), the Km is 128.11 μM and 101.23 ± 26.11 (ns) μM; the Vmax is 557.21 ± 89.21(ns).

B2: hURAT1 K393H mutant (Homo sapiens; K393H) (protein)
chain: T1 sequence (Q96S37 1-553 K393H)
As to B2, in data set [5] (other: K393H), the Michaelis constant (Km) is 101.23 μM and 128.11 ± 19.12 (ns) μM; the Vmax is 0.000447 µmol/min/mg.

B3: hURAT1 K393D mutant (Homo sapiens; K393D) (protein)
chain: T1 sequence (Q96S37 1-553 K393H) with H393D
Consider B3, for which, in data set [5] (other: K393D), the Km came out at 165.36 ± 23.41 µM and the maximal velocity (Vmax) came out at 0.000497 µmol/min/mg.

B4: hURAT1 WT (Homo sapiens) (protein)
chain: T1 sequence (Q96S37 1-553 K393H) with H393K
In the case of B4, in data set [5] (other: WT), the Km stood at 106.45 ± 16.45 µM and the maximum rate (Vmax) was determined as 0.000654 µmol/min/mg.

B5: hURAT1 K393E mutant (Homo sapiens; K393E) (protein)
chain: T1 sequence (Q96S37 1-553 K393H) with H393E
Turning to B5, in [5] (other: K393E), the Michaelis-Menten constant (Km) was found to be 201.23 ± 23.65 µM and the Vmax is 0.000424 µmol/min/mg.

B6: hURAT1 K393A mutant (Homo sapiens; K393A) (protein)
chain: T1 sequence (Q96S37 1-553 K393H) with H393A
As for B6, in [5] (other: K393A), the Michaelis-Menten constant (Km) is 172.12 ± 27.12 µM and the maximum rate (Vmax) is 0.000464 µmol/min/mg.
